Test system: endogenous cellular STAT1 (phosphorylated at Tyr701) in NCI-H1373 cells
Assay: Phospho-STAT1 (Tyr701) LANCE Ultra TR-FRET Detection Assay
Type: cell-based
Settings: Homo sapiens, NCI-H1373, 48 h, phospho-STAT1 (Tyr701) induction, read-out: NH1373 pSTAT1 EC50

Compared with `O=c1[nH]ncc(N[C@H](CCCn2cnc3cc(-c4ccc5c(n4)NCCO5)c(F)cc3c2=O)COC(F)F)c1C(F)(F)F` [Example 425, (R)-3-(5-(difluoromethoxy)-4-((6-oxo-5-(trifluoromethyl)-1,6-dihydropyridazin-4-yl)amino)pentyl)-7-(3,4-dihydro-2H-pyrido[3,2-b][1,4]oxazin-6-yl)-6-fluoroquinazolin-4(3H)-one], `O=c1[nH]ncc(N[C@H](CCCn2ccc3cc(-c4cnc(C(F)(F)F)cn4)c(F)cc3c2=O)COC(F)F)c1C(F)(F)F` [Example 417, (R)-2-(5-(difluoromethoxy)-4-((6-oxo-5-(trifluoromethyl)-1,6-dihydropyridazin-4-yl)amino)pentyl)-7-fluoro-6-(5-(trifluoromethyl)pyrazin-2-yl)isoquinolin-1(2H)-one] is 4.3-fold lower in EC50: 9.83 nM for the first, 2.28 nM for the second. The second is the more potent here.

Compared with `C[C@@H](CCCn1cnc2cc(-c3ncc(C(F)(F)F)c(N4CC(C)(O)C4)n3)c(F)cc2c1=O)Nc1cn[nH]c(=O)c1C(F)(F)F` [Example 190, (S)-6-fluoro-7-(4-(3-hydroxy-3-methylazetidin-1-yl)-5-(trifluoromethyl)pyrimidin-2-yl)-3-(4-((6-oxo-5-(trifluoromethyl)-1,6-dihydropyridazin-4-yl)amino)pentyl)quinazolin-4(3H)-one], `COc1cnc(-c2cc3ncn(CCC[C@H](C)Nc4cn[nH]c(=O)c4C(F)(F)F)c(=O)c3cc2F)nc1N` [Example 66, 7-(4-amino-5-methoxy-pyrimidin-2-yl)-6-fluoro-3-[(4S)-4-[[6-oxo-5-(trifluoromethyl)-1H-pyridazin-4-yl]amino]pentyl]quinazolin-4-one] is 2.4-fold higher in EC50: 29.9 nM for the first, 71.5 nM for the second.

Compared with `COc1cnc(-c2cc3ccn(CCC[C@H](C)Nc4cn[nH]c(=O)c4C(F)(F)F)c(=O)c3cc2F)nc1NCCO` [Example 218, (S)-7-fluoro-6-(4-((2-hydroxyethyl)amino)-5-methoxypyrimidin-2-yl)-2-(4-((6-oxo-5-(trifluoromethyl)-1,6-dihydropyridazin-4-yl)amino)pentyl)isoquinolin-1(2H)-one], `COc1cnc(-c2cc3ccn(CCC[C@@H](Nc4cn[nH]c(=O)c4C(F)(F)F)C4CC4)c(=O)c3cc2F)nc1N` [Example 146, 6-(4-amino-5-methoxypyrimidin-2-yl)-2-[(4R)-4-cyclopropyl-4-[[6-oxo-5-(trifluoromethyl)-1H-pyridazin-4-yl]amino]butyl]-7-fluoroisoquinolin-1-one] is 76-fold lower in EC50: 1100 nM for the first, 14.5 nM for the second. The second is the more potent here.

First: Cc1ccc(-c2cc3ccn(CCC[C@H](C)Nc4cn[nH]c(=O)c4C(F)(F)F)c(=O)c3cc2F)nc1C(F)(F)F [Example 296, (S)-7-fluoro-6-(5-methyl-6-(trifluoromethyl)pyridin-2-yl)-2-(4-((6-oxo-5-(trifluoromethyl)-1,6-dihydropyridazin-4-yl)amino)pentyl)isoquinolin-1(2H)-one]
Second: C[C@@H](CCCn1ccc2cc(-c3ccc(C(F)(F)F)c(N)n3)c(F)cc2c1=O)Nc1cn[nH]c(=O)c1C(F)(F)F [Example 213]
The EC50 of the first is 130-fold higher: 1460 nM for the first, 11.5 nM for the second.

Compared with `C[C@@H](CCCn1ccc2cc(-n3cc(C(F)(F)F)cn3)ccc2c1=O)Nc1cn[nH]c(=O)c1C(F)(F)F` [Example 173, (S)-2-(4-((6-oxo-5-(trifluoromethyl)-1,6-dihydropyridazin-4-yl)amino)pentyl)-6-(4-(trifluoromethyl)-1H-pyrazol-1-yl)isoquinolin-1(2H)-one], `C[C@@H](CCCn1ccc2cc(-c3cnc(C(F)(F)F)c(N)n3)c(F)c(F)c2c1=O)Nc1cn[nH]c(=O)c1C(F)(F)F` [Example 349, (S)-6-(6-amino-5-(trifluoromethyl)pyrazin-2-yl)-7,8-difluoro-2-(4-((6-oxo-5-(trifluoromethyl)-1,6-dihydropyridazin-4-yl)amino)pentyl)isoquinolin-1(2H)-one] is 23-fold lower in EC50: 270 nM for the first, 11.8 nM for the second. The second is the more potent here.

Compared with `CC#C[C@@H](CCCn1ccc2cc(-c3ncc(C(F)(F)F)cn3)c(F)c(F)c2c1=O)Nc1cn[nH]c(=O)c1C(F)(F)F` [Example 161, 7,8-difluoro-2-[(4R)-4-[[6-oxo-5-(trifluoromethyl)-1H-pyridazin-4-yl]amino]hept-5-ynyl]-6-[5-(trifluoromethyl)pyrimidin-2-yl]isoquinolin-1-one], `O=c1[nH]ncc(NCCCCn2ccc3cc(-c4ncc(C(F)(F)F)cn4)c(F)c(F)c3c2=O)c1C(F)(F)F` [Example 85, 7,8-difluoro-2-(4-((6-oxo-5-(trifluoromethyl)-1,6-dihydropyridazin-4-yl)amino)butyl)-6-(5-(trifluoromethyl)pyrimidin-2-yl)isoquinolin-1(2H)-one] is 3.9-fold higher in EC50: 28.7 nM for the first, 113 nM for the second.

Going from `CCNc1cnc(-c2cc3ccn(C[C@@H]4CCC[C@H](Nc5cn[nH]c(=O)c5C(F)(F)F)C4)c(=O)c3cc2F)cn1` [Example 277, 6-(5-(ethylamino)pyrazin-2-yl)-7-fluoro-2-(((1R,3S)-3-((6-oxo-5-(trifluoromethyl)-1,6-dihydropyridazin-4-yl)amino)cyclohexyl)methyl)isoquinolin-1(2H)-one] to `Nc1nc(-c2cc3ccn(C[C@@H]4CCC[C@H](Nc5cn[nH]c(=O)c5C(F)(F)F)C4)c(=O)c3cc2F)ccc1C(F)F` [Example 269, 6-(6-amino-5-(difluoromethyl)pyridin-2-yl)-7-fluoro-2-(((1R,3S)-3-((6-oxo-5-(trifluoromethyl)-1,6-dihydropyridazin-4-yl)amino)cyclohexyl)methyl)isoquinolin-1(2H)-one], the EC50 falls from 348 nM to 54.3 nM (6.4-fold).

Compared with `O=c1[nH]ncc(N[C@@H]2CC[C@H](Cn3ccc4cc(-c5ncc(C(F)(F)F)cn5)c(F)cc4c3=O)C2)c1C(F)(F)F` [Example 446, 7-fluoro-2-(((1S,3R)-3-((6-oxo-5-(trifluoromethyl)-1,6-dihydropyridazin-4-yl)amino)cyclopentyl)methyl)-6-(5-(trifluoromethyl)pyrimidin-2-yl)isoquinolin-1(2H)-one], `O=c1[nH]ncc(N[C@H]2CCN[C@@H]2CCn2ccc3cc(-c4ncc(C(F)(F)F)cn4)c(F)cc3c2=O)c1C(F)(F)F` [Example 440, 7-fluoro-2-(2-((2R,3S)-3-((6-oxo-5-(trifluoromethyl)-1,6-dihydropyridazin-4-yl)amino)pyrrolidin-2-yl)ethyl)-6-(5-(trifluoromethyl)pyrimidin-2-yl)isoquinolin-1(2H)-one] is 6.5-fold higher in EC50: 270 nM for the first, 1750 nM for the second.

First: Nc1nc(-c2cc3ccn(CCC[C@H](COC(F)F)Nc4cn[nH]c(=O)c4C(F)(F)F)c(=O)c3c(F)c2F)ncc1OC(F)F [Example 397, (R)-6-(4-amino-5-(difluoromethoxy)pyrimidin-2-yl)-2-(5-(difluoromethoxy)-4-((6-oxo-5-(trifluoromethyl)-1,6-dihydropyridazin-4-yl)amino)pentyl)-7,8-difluoroisoquinolin-1(2H)-one]
Second: CC[C@@H](CCCn1ccc2cc(-c3ncc(C#N)c(N)n3)c(F)cc2c1=O)Nc1cn[nH]c(=O)c1C(F)(F)F [Example 70, 4-amino-2-[7-fluoro-1-oxo-2-[(4S)-4-[[6-oxo-5-(trifluoromethyl)-1H-pyridazin-4-yl]amino]hexyl]-6-isoquinolyl]pyrimidine-5-carbonitrile]
The EC50 of the first is 2.2-fold lower: 10.1 nM for the first, 22.1 nM for the second. The first is the more potent here.

Going from `O=c1[nH]ncc(N2CCC2CCCn2cnc3cc(-c4ncc(C(F)(F)F)cn4)c(F)cc3c2=O)c1C(F)(F)F` (centres unmarked) [Example 150, 6-fluoro-3-[3-[1-[6-oxo-5-(trifluoromethyl)-1H-pyridazin-4-yl]azetidin-2-yl]propyl]-7-[5-(trifluoromethyl)pyrimidin-2-yl]quinazolin-4-one] to `COc1cnc(-c2cc3ccn(CCC[C@@H]4C[C@@H](C)CN4c4cn[nH]c(=O)c4C(F)(F)F)c(=O)c3cc2F)nc1N` [Example 175, 6-(4-amino-5-methoxypyrimidin-2-yl)-7-fluoro-2-[3-[(2R,4R)-4-methyl-1-[6-oxo-5-(trifluoromethyl)-1H-pyridazin-4-yl]pyrrolidin-2-yl]propyl]isoquinolin-1-one], the EC50 rises from 19.1 nM to 57.5 nM (3-fold). The first is the more potent here.

First: O=c1[nH]ncc(N[C@H](CCCn2ccc3nc(-c4ccc(C(F)F)cn4)ccc3c2=O)COC(F)F)c1C(F)(F)F [Example 408, (R)-6-(5-(difluoromethoxy)-4-((6-oxo-5-(trifluoromethyl)-1,6-dihydropyridazin-4-yl)amino)pentyl)-2-(5-(difluoromethyl)pyridin-2-yl)-1,6-naphthyridin-5(6H)-one]
Second: O=c1[nH]ncc(N[C@H](CCCn2ccc3cc(-c4nc5ccccn5n4)c(F)cc3c2=O)COC(F)F)c1C(F)(F)F [Example 489, (R)-6-([1,2,4]triazolo[1,5-a]pyridin-2-yl)-2-(5-(difluoromethoxy)-4-((6-oxo-5-(trifluoromethyl)-1,6-dihydropyridazin-4-yl)amino)pentyl)-7-fluoroisoquinolin-1(2H)-one]
The EC50 of the first is 8.1-fold higher: 4.11 nM for the first, 0.51 nM for the second. The second is the more potent here.

Compared with `C[C@@H](/C=C/Cn1ccc2cc(-c3ncc(C(F)(F)F)cn3)c(F)c(F)c2c1=O)Nc1cn[nH]c(=O)c1C(F)(F)F` [Example 133, (S,E)-7,8-difluoro-2-(4-((6-oxo-5-(trifluoromethyl)-1,6-dihydropyridazin-4-yl)amino)pent-2-en-1-yl)-6-(5-(trifluoromethyl)pyrimidin-2-yl)isoquinolin-1(2H)-one], `O=c1[nH]ncc(Nc2cccc(Cn3ccc4cc(-c5ncc(C(F)(F)F)cn5)c(F)cc4c3=O)c2)c1C(F)(F)F` [Example 91, 7-fluoro-2-[[3-[[6-oxo-5-(trifluoromethyl)-1H-pyridazin-4-yl]amino]phenyl]methyl]-6-[5-(trifluoromethyl)pyrimidin-2-yl]isoquinolin-1-one] is 100-fold higher in EC50: 2.83 nM for the first, 290 nM for the second. The first is the more potent here.

`C[C@@H](CCCn1cnc2cc(-c3ncc4cc[nH]c4n3)c(F)cc2c1=O)Nc1cn[nH]c(=O)c1C(F)(F)F` [Example 62, 6-fluoro-3-[(4S)-4-[[6-oxo-5-(trifluoromethyl)-1H-pyridazin-4-yl]amino]pentyl]-7-(7H-pyrrolo[2,3-d]pyrimidin-2-yl)quinazolin-4-one] and `C[C@@H](CCCn1cnc2cc(-c3ncc4c(F)c[nH]c4n3)c(F)cc2c1=O)Nc1cn[nH]c(=O)c1C(F)(F)F` [Example 64, 6-fluoro-7-(5-fluoro-7H-pyrrolo[2,3-d]pyrimidin-2-yl)-3-[(4S)-4-[[6-oxo-5-(trifluoromethyl)-1H-pyridazin-4-yl]amino]pentyl]quinazolin-4-one] are within 1.5-fold of each other in EC50: 31.3 nM for the first, 37.3 nM for the second.

Reference: US12459922B2 (Gilead Sciences, Inc., priority 2022, dated 2025)
